From patent US20240043404A1 (AbbVie Inc., priority 2009, published 2024)
Read-outs that look alike come from different tables or passages of the source.

Tested on: RS4;11 cells
Assay: RS4;11 cell viability assay (CellTiter Glo);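 also: acute lymphoblastic leukemia line RS4,11, EC50 derived from percentage of viable cells after treatment relative to untreated controls, cell killing taken as a measure of Bcl-2 inhibition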
Type: cell-based, human
Conditions: Homo sapiens, read-out: RS4
[1] = RS4-11, 48 h, 50,000 cells per well, 10% human serum, 48 hours, 11 EC50 Values
[2] = RS4-11, Table 5, direct comparison Z=N with corresponding analogs Z=C, 11 EC50

Protocol: The acute lymphoblastic leukemia (ALL) cell line RS4;11 was used as the primary human cell line to assess the cellular activity of Bcl-2 selective agents in vitro and their efficacy in vivo.
Cell cytotoxicity EC50 values were assessed using CellTiter Glo (Promega) according to the manufacturer's recommendations. The EC50 values were determined as a percentage of viable cells following treatment compared to the untreated control cells.

Row | EC50 [1] | Compound | EC50 [2]
1 | 99.6 nM | CC1(C)CCC(CN2CCN(c3ccc(C(=O)NS(=O)(=O)c4cnc(OCC5(F)CCOCC5)c(F)c4)c(Oc4cnc5[nH]ccc5c4)c3)CC2)=C(c2ccc(Cl)cc2)C1 [Example 248, 4-(4-{[2-(4-chlorophenyl)-4,4-dimethylcyclohex-1-en-1-yl]methyl}piperazin-1-yl)-N-({5-fluoro-6-[(4-fluorotetrahydro-2H-pyran-4-yl)methoxy]pyridin-3-yl}sulfonyl)-2-(1H-pyrrolo[2,3-b]pyridin-5-yloxy)benzamide] | –
2 | > 1000 nM | CC1(C)CCC(CN2CCN(c3ccc(C(=O)NS(=O)(=O)c4ccc(NN5CCN(C(=O)OC(C)(C)C)CC5)c([N+](=O)[O-])c4)c(Oc4cnc5[nH]ccc5c4)c3)CC2)=C(c2ccc(Cl)cc2)C1 [Example 232, tert-butyl 4-[(4-{[4-(4-{[2-(4-chlorophenyl)-4,4-dimethylcyclohex-1-en-1-yl]methyl}piperazin-1-yl)-2-(1H-pyrrolo[2,3-b]pyridin-5-yloxy)benzoyl]sulfamoyl}-2-nitrophenyl)amino]piperazine-1-carboxylate] | –
3 | 0.388 nM | CN(C)CC(=O)N1CCO[C@@H](CNc2ccc(S(=O)(=O)NC(=O)c3ccc(N4CCN(CC5=C(c6ccc(Cl)cc6)CC(C)(C)CC5)CC4)cc3Oc3cnc4[nH]ccc4c3)cc2[N+](=O)[O-])C1 [Example 259, 4-(4-{[2-(4-chlorophenyl)-4,4-dimethylcyclohex-1-en-1-yl]methyl}piperazin-1-yl)-N-{[4-({[(2S)-4-(N,N-dimethylglycyl)morpholin-2-yl]methyl}amino)-3-nitrophenyl]sulfonyl}-2-(1H-pyrrolo[2,3-b]pyridin-5-yloxy)benzamide] | –
4 | > 5000 nM | CC1(C)CCC(CN2CCN(c3ccc(C(=O)NS(=O)(=O)c4ccc5nc[nH]c(=O)c5c4)c(Oc4cnc5[nH]ccc5c4)c3)CC2)=C(c2ccc(Cl)cc2)C1 [Example 70, 4-(4-{[2-(4-chlorophenyl)-4,4-dimethylcyclohex-1-en-1-yl]methyl}piperazin-1-yl)-N-[(4-oxo-3,4-dihydroquinazolin-6-yl)sulfonyl]-2-(1H-pyrrolo[2,3-b]pyridin-5-yloxy)benzamide] | –
5 | 43.8 nM | CN1CC(Nc2ccc(S(=O)(=O)NC(=O)c3ccc(N4CCN(CC5=C(c6ccc(Cl)cc6)CC(C)(C)CC5)CC4)cc3Oc3cnc4[nH]ccc4c3)cc2[N+](=O)[O-])CC1=O (stereo not drawn) [Example 202, 4-(4-{[2-(4-chlorophenyl)-4,4-dimethylcyclohex-1-en-1-yl]methyl}piperazin-1-yl)-N-({4-[(1-methyl-5-oxopyrrolidin-3-yl)amino]-3-nitrophenyl}sulfonyl)-2-(1H-pyrrolo[2,3-b]pyridin-5-yloxy)benzamide] | –
6 | 783 nM | O=C(NS(=O)(=O)c1ccc(NCCCN2CCOCC2)c([N+](=O)[O-])c1)c1ccc(N2CCN(Cc3ccccc3-c3ccc(Cl)cc3)CC2)cc1Oc1cnc2[nH]ccc2c1 [Example 2, 4-{4-[(4′-chloro-1,1′-biphenyl-2-yl)methyl]piperazin-1-yl}-N-({4-[(3-morpholin-4-ylpropyl)amino]-3-nitrophenyl}sulfonyl)-2-(1H-pyrrolo[2,3-b]pyridin-5-yloxy)benzamide] | 783 nM
7 | 83.6 nM | CN(C)CC(=O)N1CCO[C@H](COc2ncc(S(=O)(=O)NC(=O)c3ccc(N4CCN(CC5=C(c6ccc(Cl)cc6)CC(C)(C)CC5)CC4)cc3Oc3cnc4[nH]ccc4c3)cc2Cl)C1 [Example 245, N-[(5-chloro-6-{[(2S)-4-(N,N-dimethylglycyl)morpholin-2-yl]methoxy}pyridin-3-yl)sulfonyl]-4-(4-{[2-(4-chlorophenyl)-4,4-dimethylcyclohex-1-en-1-yl]methyl}piperazin-1-yl)-2-(1H-pyrrolo[2,3-b]pyridin-5-yloxy)benzamide] | –
8 | 123 nM | CC1(C)CCC(CN2CCN(c3ccc(C(=O)NS(=O)(=O)c4ccc(N[C@H]5CCN(CC(F)F)C5)c([N+](=O)[O-])c4)c(Oc4cnc5[nH]ccc5c4)c3)CC2)=C(c2ccc(Cl)cc2)C1 [Example 182, 4-(4-{[2-(4-chlorophenyl)-4,4-dimethylcyclohex-1-en-1-yl]methyl}piperazin-1-yl)-N-[(4-{[(3S)-1-(2,2-difluoroethyl)pyrrolidin-3-yl]amino}-3-nitrophenyl)sulfonyl]-2-(1H-pyrrolo[2,3-b]pyridin-5-yloxy)benzamide] | –
9 | 60.2 nM | CO[C@H]1CC[C@H](COc2ncc(S(=O)(=O)NC(=O)c3ccc(N4CCN(CC5=C(c6ccc(Cl)cc6)CC(C)(C)CC5)CC4)cc3Oc3cnc4[nH]ccc4c3)cc2Cl)CC1 [Example 210, Trans-N-({5-chloro-6-[(4-methoxycyclohexyl)methoxy]pyridin-3-yl}sulfonyl)-4-(4-{[2-(4-chlorophenyl)-4,4-dimethylcyclohex-1-en-1-yl]methyl}piperazin-1-yl)-2-(1H-pyrrolo[2,3-b]pyridin-5-yloxy)benzamide] | –
10 | 118 nM | CC(C)N1CCC(Nc2ccc(S(=O)(=O)NC(=O)c3ccc(N4CCN(CC5=C(c6ccc(Cl)cc6)CC(C)(C)CC5)CC4)cc3Oc3cnc4[nH]ccc4c3)cc2[N+](=O)[O-])CC1 [Example 226, 4-(4-{[2-(4-chlorophenyl)-4,4-dimethylcyclohex-1-en-1-yl]methyl}piperazin-1-yl)-N-({4-[(1-isopropylpiperidin-4-yl)amino]-3-nitrophenyl}sulfonyl)-2-(1H-pyrrolo[2,3-b]pyridin-5-yloxy)benzamide] | –
11 | 16.2 nM | CN1CCC[C@H]1C(=O)N1CCC(COc2ccc(S(=O)(=O)NC(=O)c3ccc(N4CCN(CC5=C(c6ccc(Cl)cc6)CC(C)(C)CC5)CC4)cc3Oc3cnc4[nH]ccc4c3)cc2Cl)CC1 [Example 312, N-[(3-chloro-4-{[1-(1-methyl-L-prolyl)piperidin-4-yl]methoxy}phenyl)sulfonyl]-4-(4-{[2-(4-chlorophenyl)-4,4-dimethylcyclohex-1-en-1-yl]methyl}piperazin-1-yl)-2-(1H-pyrrolo[2,3-b]pyridin-5-yloxy)benzamide] | –
12 | 86.5 nM | CC1(C)CCC(CN2CCN(c3ccc(C(=O)NS(=O)(=O)c4cnc(OCC5(F)CCOCC5)c(C#N)c4)c(Oc4cnc5[nH]ccc5c4)c3)CC2)=C(c2ccc(Cl)cc2)C1 [Example 56, 4-(4-{[2-(4-chlorophenyl)-4,4-dimethylcyclohex-1-en-1-yl]methyl}piperazin-1-yl)-N-({5-cyano-6-[(4-fluorotetrahydro-2H-pyran-4-yl)methoxy]pyridin-3-yl}sulfonyl)-2-(1H-pyrrolo[2,3-b]pyridin-5-yloxy)benzamide] | –
13 | 88.7 nM | CC1(C)CCC(CN2CCN(c3ccc(C(=O)NS(=O)(=O)c4ccc(OC[C@@H]5CC(F)(F)CN5C5COC5)c([N+](=O)[O-])c4)c(Oc4cnc5[nH]ccc5c4)c3)CC2)=C(c2ccc(Cl)cc2)C1 [Example 168, 4-(4-{[2-(4-chlorophenyl)-4,4-dimethylcyclohex-1-en-1-yl]methyl}piperazin-1-yl)-N-[(4-{[(2S)-4,4-difluoro-1-oxetan-3-ylpyrrolidin-2-yl]methoxy}-3-nitrophenyl)sulfonyl]-2-(1H-pyrrolo[2,3-b]pyridin-5-yloxy)benzamide] | –
14 | 769 nM | CC1(C)CCC(CC2CCN(c3ccc(C(=O)NS(=O)(=O)c4ccc(NCC5CCOCC5)c([N+](=O)[O-])c4)c(Oc4cnc5[nH]ccc5c4)c3)CC2)C(c2ccc(Cl)cc2)C1 (stereo not drawn) [Example 296, 4-(4-{[2-(4-chlorophenyl)-4,4-dimethylcyclohexyl]methyl}piperidin-1-yl)-N-({3-nitro-4-[(tetrahydro-2H-pyran-4-ylmethyl)amino]phenyl}sulfonyl)-2-(1H-pyrrolo[2,3-b]pyridin-5-yloxy)benzamide] | –
15 | 313 nM | CC1(C)CCC(CN2CCN(c3ccc(C(=O)NS(=O)(=O)c4cnc(OCC5COCCO5)c(Br)c4)c(Oc4cnc5[nH]ccc5c4)c3)CC2)=C(c2ccc(Cl)cc2)C1 (stereo not drawn) [Example 50, N-{[5-bromo-6-(1,4-dioxan-2-ylmethoxy)pyridin-3-yl]sulfonyl}-4-(4-{[2-(4-chlorophenyl)-4,4-dimethylcyclohex-1-en-1-yl]methyl}piperazin-1-yl)-2-(1H-pyrrolo[2,3-b]pyridin-5-yloxy)benzamide] | –
16 | 1390 nM | CC1(C)CCC(CN2CCN(c3ccc(C(=O)NS(=O)(=O)c4ccc(NCC5(N6CCOCC6)CCCCC5)c([N+](=O)[O-])c4)c(Oc4cnc5[nH]ccc5c4)c3)CC2)=C(c2ccc(Cl)cc2)C1 [Example 99, 4-(4-{[2-(4-chlorophenyl)-4,4-dimethylcyclohex-1-en-1-yl]methyl}piperazin-1-yl)-N-[(4-{[(1-morpholin-4-ylcyclohexyl)methyl]amino}-3-nitrophenyl)sulfonyl]-2-(1H-pyrrolo[2,3-b]pyridin-5-yloxy)benzamide] | –
17 | 18 nM | CC1(C)CCC(CN2CCN(c3ccc(C(=O)NS(=O)(=O)c4ccc(NC5CN(C6COC6)C5)c([N+](=O)[O-])c4)c(Oc4cnc5[nH]ccc5c4)c3)CC2)=C(c2ccc(Cl)cc2)C1 [Example 256, 4-(4-{[2-(4-chlorophenyl)-4,4-dimethylcyclohex-1-en-1-yl]methyl}piperazin-1-yl)-N-[(3-nitro-4-{[1-(oxetan-3-yl)azetidin-3-yl]amino}phenyl)sulfonyl]-2-(1H-pyrrolo[2,3-b]pyridin-5-yloxy)benzamide] | –
18 | 3.76 nM | CC1(C)CCC(CN2CCN(c3ccc(C(=O)NS(=O)(=O)c4ccc(N[C@@H]5CCN(C(CF)CF)C5)c([N+](=O)[O-])c4)c(Oc4cnc5[nH]ccc5c4)c3)CC2)=C(c2ccc(Cl)cc2)C1 [Example 207, 4-(4-{[2-(4-chlorophenyl)-4,4-dimethylcyclohex-1-en-1-yl]methyl}piperazin-1-yl)-N-{[4-({(3R)-1-[2-fluoro-1-(fluoromethyl)ethyl]pyrrolidin-3-yl}amino)-3-nitrophenyl]sulfonyl}-2-(1H-pyrrolo[2,3-b]pyridin-5-yloxy)benzamide] | –

Row | Compound | EC50 [1] | EC50 [2]
19 | COCCNc1ccc(S(=O)(=O)NC(=O)c2ccc(N3CCN(CC4=C(c5ccc(Cl)cc5)CC(C)(C)CC4)CC3)cc2Oc2ccc3[nH]ccc3c2)cc1S(=O)(=O)C(F)(F)F [Example 93, 4-(4-{[2-(4-chlorophenyl)-4,4-dimethylcyclohex-1-en-1-yl]methyl}piperazin-1-yl)-2-(1H-indol-5-yloxy)-N-({4-[(2-methoxyethyl)amino]-3-[(trifluoromethyl)sulfonyl]phenyl}sulfonyl)benzamide] | > 5000 nM | > 5000 nM
